In experiment [1] the test system is breast cancer cells isolated from tumors of MMTV-CreBRCA1^f/fp53+/− mice. The experiment can be described thus: Rad51 foci immunofluorescence after ionizing radiation. As to conditions: pre-treatment, 10 Gy, 6 hours post-irradiation. In kind it is cell-based, mouse. The procedure: FIGS. 5B-5E are immunofluorescence images of breast cancer cells isolated from primary tumors from MMTV-CreBRCA1^f/fp53+/− mice either treated with vehicle control (5B and 5C) or Compound A (5D and 5E) for 18 hours, followed by irradiation with 10 Gy IR 6 hours later cells, using antibodies against Rad51 and counterstained with DAPI. Rad51 foci are depicted as lighter punctuate signals within the cells (5C).
Cells were plated on coverslips in a 6-well plates and incubated overnight at 37° C. with 5% CO2 before drug treatment. Cells were exposed to 5-(2,6-dimorpholinopyrimidin-4-yl)-4-(trifluoromethyl)pyridin-2-amine (Compound A) for […] followed by irradiation (10 Gy). Cells were fixed with 3% paraformaldehyde and 2% sucrose diluted in PBS 6 h post-irradiation and subsequently permeabilized with 0.5% TritonX-100 buffer (20 mM HEPES pH7.4, 50 mM NaCl, 3 mM MgCl, 300 mM sucrose) for 3 minutes on ice. Cells were incubated with a primary rabbit anti human Rad-51 antiserum at 1:500 dilution in hybridization buffer (5% goat serum, 0.5% NaN3, 1×PBS) for 30 min at 37° C. and subsequently washed thrice in PBS before incubation with secondary antibody for 30 minutes at 37° C. Secondary antibody used was a donkey anti-rabbit Alexafluor 488 conjugated (Invitrogen) at a concentration of 1:50. […]

The subject of experiment [2] is tumor tissue of MMTV-CreBRCA1^f/fp53+/− mice. The experiment can be described thus: Immunohistochemistry / immunoblot of tumor tissue for γH2AX, Ki67, p-ERK. More on the design: species or system mouse. As to conditions: in vivo treated tumors. The procedure:
FIG. 4B are immunohistochemical images of pre-treatment biopsies and post-Compound A treatment tumor tissues with antibodies against p-ERK, Ki67, and γH2AX showing an in vivo increase of γH2AX-positive cells after treatment with Compound A and proliferative activity at the “pushing margin.” Tumor-bearing mice were subjected to a pre-treatment biopsy and then treated with Compound A at 50 mg/kg/day. FIG. 6E are immunoblots with antibodies against actin, p-AKT, and γH2AX of tumor tissues harvested from animals 3 hours after last treatment with Compound A (30 mg/kg/day), Compound B (50 mg/kg/day), or their combination. FIG. 8A are immunohistochemical images of tumor tissues obtained from tumor-bearing […] pre-treatment (left column of images), at Day 10 of treatment (middle column of images), and post-treatment tissue at the time of progression (right column of images) following treatment with a combination of Compound A and Compound B. FIG. 8B is a graph of Ki67 (right bar graph in each treatment group) and γH2AX (left bar graph in each treatment group) levels in tumor biopsies in pre-treatment, on-treatment, and post-treatment at the time of progression groups. Ki67 and γH2AX were scored by counting and averaging the number of positive nuclei per high-power field (HPF). […] The protein concentration was determined using Bradford reagent (Biorad). […]
(In general: A western blot detects proteins with antibodies after separation by electrophoresis.)

Molecules are shown by their SMILES.

Consider `Nc1cc(C(F)(F)F)c(-c2cc(N3CCOCC3)nc(N3CCOCC3)n2)cn1` [Compound A, 5-(2,6-dimorpholinopyrimidin-4-yl)-4-(trifluoromethyl)pyridin-2-amine], for which, in experiment [1], the “formation of Rad51 foci in response to ionizing radiation” value is given as “completely blocked”. In addition, the “percentage of tumor cells that express γH2AX / γH2AX in tumor lysates” value in experiment [2] is recorded as “substantial increase”.

(Values after patent publication US20140235630A1, “COMPOSITIONS AND METHODS FOR THE TREATMENT OF PROLIFERATIVE DISEASES” (Beth Israel Deaconess Medical Center, Inc., priority 2011, published 2014).)
